{"source": "patent US4937232A", "about": "“Inhibition of protein kinase C by long-chain bases” (priority 1988, dated 1990)", "key": {"human neutrophils [1]": {"test_system": "human neutrophils", "conditions": "cited from earlier work"}, "HL-60 cells [2]": {"test_system": "HL-60 cells", "assay": "Morphology and marker enzymes (ANA esterase, acid phosphatase) of HL-60 cells on day 3", "format": "cell-based, human", "conditions": "8 nM PMA, 0 μM sphinganine, 3 days", "source_text": "Expression of most other signs of HL-60 cell differentiation requires longer time periods after treatment with PMA. For these experiments, the cells were examined on day 3 for adherence and acid phosphatase activity (Table IV) and morphology and the marker enzymes alpha-naptholacetate (ANA) esterase and acid phosphatase (Table V)."}, "human neutrophils [3]": {"test_system": "human neutrophils", "assay": "[32P]-phosphate incorporation into TCA-precipitable material of neutrophils", "format": "cell-based", "conditions": "PMA (1 μM)", "description": "Neutrophils (1.4×10^8 cells) were preincubated in with 0.5 mCi Na2 H^32 PO4 in buffer containing […] NaCl, 5.56 mM glucose, 10 mM Hepes, and 0.33 mM CaCl2 for a total of 1 hr at 37° C. in a shaking waterbath. Excess unbound counts were removed by centrifugation and resuspension, repeated five times. The cells were then divided into 4 treatment groups (see RESULTS below) containing approximately 3.5×10^7 cells each. All groups were incubated at 37° C. in a shaking waterbath for the same total time. Some samples were incubated 10 min. with sphinganine (40 μM) prior to addition of 1 μM PMA (final concentration), with which they were incubated for an additional 15 min. The reaction was stopped by addition of an equal volume of boiling SDS dissociation buffer (9% SDS, 1% mercaptoethanol, 15% glycerol, 30 mM Tris, pH 7.8). The samples were run on a 12% SDS-polyacrylamide gel using the method of Rudolph and Krueger (Adv. Cyclic Nucleotide Res. 101, 107-133, 1979). The gels were dried using a Bio-Rad model 2400 Gel Slab Dryer. Autoradiography was performed on the dried gels using Kodak X-omat X-ray film and Dupont Cronex intensifying screens. The gels were exposed for 12 hrs at -70° C.\nAlternatively, neutrophils were preincubated as described above using 0.1 mCi of ^32 P labeled phosphate. The cells were broken by 5 min. of sonication using an Ultramet III waterbath sonicator, and 5% (final concentration) trichloroacetic acid was added to each sample. […] The precipitate was filtered and washed extensively using an Amicon filtration system and counted using a Beckman LS7000 scintillation counter."}, "HL-60 cells [4]": {"test_system": "HL-60 cells", "assay": "PMA-induced adherence (attachment) of HL-60 cells", "format": "cell-based, human", "description": "(§1) Cells were centrifuged at 600 g for 3 min, and added at 1×10^5 cells per well in 12-well culture dishes. Medium, PMA, and long-chain bases (prepared as the 1:1 molar complex with fatty acid-free bovine serum albumin) at the indicated concentrations were added for a total volume of 2.0 ml. After the desired times, the cells in suspension were counted and checked for viability (trypan blue exclusion) with a hemacytometer. The attached cells were quantitated by measuring DNA content according to the method of West et al (Anal. Biochem., 147, 289-295, 1985) and by assaying for acid phosphatase according to the method of Schnyder (J. Exp. Med., 148, 434-445, 1978)."}, "human neutrophils [5]": {"test_system": "human neutrophils", "assay": "Oxygen consumption (oxidative burst) of human neutrophils", "format": "cell-based", "conditions": "for IC50: oxidative burst, PMA activation, read-out: Concentration required for 50% inhibition", "source_text": "Human neutrophils were obtained by continuous flow leukapheresis from normal adults. Residual erythrocytes were removed by hypotonic lysis with a resulting purity of >95% neutrophils. Alternatively peripheral blood was obtained by phlebotomy and neutrophils were isolated by HESPAN (6% Hetastarch, 0.9% NaCl) sedimentaion of erythrocytes, centrifugation through lymphocyte separation medium (9.4% sodium diatrizoate, 6.2% Ficoll), and hypotonic lysis of residual erythrocytes. Isolated cells were resuspended in phosphate buffered saline (PBS)-glucose, containing 0.6 mM CaCl2, 2.6 mM KCl, 1.5 mM KH2 PO4, 0.5 mM MgCl2, 136 mM NaCl, 8 mM Na2 HPO4, 5.5 mM glucose.\nOxygen consumption was measured using a Clark-type electrode with YSI model 53 oxygen monitor. Assays were conducted at 37° C. with 6.5×10^6 cells per ml with a total volume of either 2.5 ml or 4 ml. Effectors were injected into the electrode chamber using a Hamilton syringe. Initial slopes after the addition of the stimuli were used for rate calculations. For activators with a lag prior to the onset of the oxidative burst, maximal rates following the lag were used."}, "HL-60 cells [6]": {"test_system": "HL-60 cells", "assay": "Acid phosphatase activities of suspended and attached HL-60 cells", "format": "cell-based, human", "conditions": "8 nM PMA, 0 μM sphinganine", "description": "as §1"}, "[7]": {"assay": "HL-60 cell growth and viability", "format": "cell-based, human", "conditions": "human, hl-60 cells, 8 nM PMA, 24 h", "description": "(§2) The HL-60 cells (obtained from the American Type Culture Collection, ATCC CCL240) were grown at 37° as a suspension culture in 175 cm^2 Nunc tissue culture flasks (Vangard International, Neptune, N.J.). The cells were subcultured at a density of 0.25×10^6 cells/ml and used between passage numbers 30 and 40.\nas §1"}, "HL-60 cells [8]": {"test_system": "HL-60 cells", "assay": "HL-60 cell growth and viability", "format": "cell-based, human", "conditions": "Homo sapiens, HL-60, 24 h, read-out: inhibition of growth of HL-60 cells", "description": "as §2, §1"}, "[9]": {"test_system": "phorbol ester binding site (protein kinase C) of neutrophils", "assay": "Cellular [3H]-phorbol dibutyrate binding in neutrophils", "parameters": "species or system human", "conditions": "50 μM; 15 min", "description": "Neutrophils (1×10^8 cells/ml) were preincubated with the indicated concentration of sphinganine, palmitic acid, or ceramide for five minutes prior to the addition of 50 nM (final concentration) of [^3 H]-phorbol dibutyrate (specific activity of 8.3 Ci/mMole). The cells were incubated an additional 15 min. in a shaking waterbath at 37° C. The incubation mixtures were filtered using an Amicon filtration manifold model VFM-III and washed 5 times with 5 mls of ice-cold PBS-glucose. The filters were counted using a Beckman LS7000 scintillation counter."}, "protein kinase C": {"test_system": "protein kinase C", "assay": "Triton X-100 mixed micellar assay for protein kinase C activity", "format": "biochemical, rat", "conditions": "mixed micellar assay", "description": "Protein kinase C was partially purified from rat brain as described by Hanrun et al (J. Biol. Chem., 260, 10043, 1985), which is hereby incorporated by reference.\nProtein kinase C was assayed with Triton X-100 mixed micelles as described by Hanrun et al, (ibid.), Sphingosine was dried down with the lipid cofactors."}}, "note": "Where “and” joins values, the source holds several entries; their conditions need not be identical. Equal values may be shown once. Entries after “also recorded” stand apart in the source; their conditions may differ. Read-outs that look alike come from different tables or passages of the source."}
{"molecule": "CC1CNCCN1S(=O)(=O)c1cccc2cnccc12", "note": "(stereo not shown) [H-7]", "values": [{"measurement": "inhibition of the respiratory burst in human neutrophils", "setting": "human neutrophils [1]", "value": "incapable of inhibiting"}]}
{"molecule": "NCCNS(=O)(=O)c1cccc2cnccc12", "note": "[H-9]", "values": [{"measurement": "inhibition of the respiratory burst in human neutrophils", "setting": "human neutrophils [1]", "value": "incapable of inhibiting"}]}
{"molecule": "CCCCCCCCCCCCCC(=O)O[C@@H]1[C@@H](C)[C@@]2(O)[C@@H](C=C(CO)C[C@]3(O)C(=O)C(C)=C[C@@H]23)[C@@H]2C(C)(C)[C@]12OC(C)=O", "note": "[PMA, Phorbol 12-myristate 13-acetate, reference compound]", "values": [{"measurement": "Acid phosphatase", "setting": "HL-60 cells [2]; adherent cells", "value": 0.60, "unit": "nmol/h/105 cells"}, {"measurement": "Acid phosphatase", "setting": "HL-60 cells [2]; suspended cells", "value": 0.30, "unit": "nmol/h/105 cells"}, {"measurement": "[32P]-phosphate incorporation into TCA-precipitable material", "setting": "human neutrophils [3]", "value": 4912, "unit": "COUNTS PER MINUTE"}, {"measurement": "number of adherent cells", "setting": "HL-60 cells [4]; 8 nM PMA alone, 24 h", "value": "0.76 ×10^5"}, {"measurement": "Adherent cells (%)", "setting": "HL-60 cells [4]; 8 nM PMA, 0 μM sphinganine, 72 h", "value": 96, "unit": "%"}, {"measurement": "% Adherence", "setting": "HL-60 cells [4]; 8 nM PMA, 24 h", "value": "61% and 61.3 ± 1.0%"}, {"measurement": "RATE of oxygen consumption, NO SPHINGANINE", "setting": "human neutrophils [5]; activator alone", "value": "4.3 nmols O2 consumed/min/10^6 cells"}, {"measurement": "Acid phosphatase activity, Adherent", "setting": "HL-60 cells [6]; 24 h", "value": "0.52 ± 0.01", "unit": "nmol/h/dish"}, {"measurement": "Acid phosphatase activity, Suspended", "setting": "HL-60 cells [6]; 24 h", "value": "0.11 ± 0.05", "unit": "nmol/h/dish"}, {"measurement": "Adherence (% of total)", "setting": "HL-60 cells [6]; 24 h", "value": "83 % of total"}, {"measurement": "Acid phosphatase activity, Adherent", "setting": "HL-60 cells [6]; 72 h", "value": "2.20 ± 0.09", "unit": "nmol/h/dish"}, {"measurement": "Acid phosphatase activity, Adherent (%)", "setting": "HL-60 cells [6]; 72 h", "value": 98, "unit": "%"}, {"measurement": "Acid phosphatase activity, Suspended", "setting": "HL-60 cells [6]; 72 h", "value": "0.05 ± 0.01", "unit": "nmol/h/dish"}, {"measurement": "viability at 24 h, 0.008 µM", "setting": "[7]; 0 μM sphinganine, read-out: Percent viability of suspended cells", "value": 60, "unit": "%"}, {"measurement": "viability at 24 h, 0.008 µM", "setting": "[7]; read-out: % Viability", "value": 80, "unit": "%"}, {"measurement": "inhibition at 0.008 µM", "setting": "HL-60 cells [8]", "value": 70, "unit": "%"}]}
{"molecule": "CCCCCCCCCCCCCCCC(=O)O", "note": "[Palmitic acid, reference compound]", "values": [{"measurement": "IC50", "setting": "human neutrophils [5]; Homo sapiens, Neutrophil", "value": "> 100", "unit": "µM"}, {"measurement": "displacement of [3H]-phorbol dibutyrate", "setting": "[9]", "value": 3, "unit": "%"}]}
{"molecule": "Ceramide", "values": [{"measurement": "inhibition of protein kinase C (specificity)", "setting": "protein kinase C", "value": "did not activate or inhibit"}, {"measurement": "inhibition of protein kinase C (specificity)", "setting": "protein kinase C; listed as ceramide", "value": "without effect; also recorded: not to be inhibitors"}, {"measurement": "inhibition of PMA-induced attachment", "setting": "HL-60 cells [4]; 8 nM PMA", "value": "not inhibitory"}, {"measurement": "IC50", "setting": "human neutrophils [5]", "value": "> 100", "unit": "µM"}, {"measurement": "displacement of [3H]-phorbol dibutyrate", "setting": "[9]", "value": 18, "unit": "%"}]}
